Reference: ChEMBL document CHEMBL1154415, “Population pharmacokinetics and pharmacodynamics of continuous versus short-term infusion of imipenem-cilastatin in critically ill patients in a randomized, controlled trial” (Antimicrob Agents Chemother, 2007)

Experiments:
Serum = test: Protein binding in human serum by ultrafiltration technique in presence of cilastatin; format: ADME, cell-free
Homo sapiens = species: Homo sapiens; test: Toxicity in nosocomial pneumonia patient assessed as induction of seizures in presence of cilastin; format: organism-based; conditions: in vivo
[1] = Plasma concentration in nosocomial pneumonia patient at loading dose of 1 g and maintenance dose of 2 g administered daily for 3 days as continuous infusion measured after 72 hrs in presence of cilastatin; format: ADME, organism-based; conditions: human, iv
[2] = Total clearance in nosocomial pneumonia patient at 1 g administered every 8 hrs for 3 days as shot-term iv infusion for 40 mins or at a loading dose of 1 g and maintenance dose of 2 g administered daily for 3 days as continuous iv infusion presence of cilastatin maintenance dose administered as continuous fusion at 8 hrs interval over 72 hrs in presence of cilastatin; format: ADME, organism-based; conditions: human, in vivo

Activity (Serum): 20%
concentration at 72 h [1]: 8650 ng/mL
clearance [2]: 205 mL/min
Structure (SMILES): C[C@@H](O)[C@H]1C(=O)N2C(C(=O)O)=C(SCCN=CN)C[C@H]12 [IMIPENEM ANHYDROUS]
Activity (Homo sapiens): Non-toxic
